Test results from publication PMC3820767, “Turning Defense into Offense: Defensin Mimetics as Novel Antibiotics Targeting Lipid II” (PLoS Pathogens, 2013).
Like-named read-outs stand apart in the source and are kept apart here.

Assays:
Caco-2 = test: Cytotoxicity by MTT assay; type: cell-based, human
[1] = test system: Escherichia coli ATCC 25922; test: Antibacterial killing, 96-well turbidimetric (modified vCC) assay; type: cell-based; details: Table S3; concentration at which 100% killing occurred, no bacterial regrowth; No = not active
Method: (§1) The antibacterial activity of defensin mimetics against Staphylococcus aureus ATCC 29213 and Escherichia coli 25922 was carried out in a 96-well turbidimetric assay essentially as described previously with the following modifications: bacteria were exposed for 30 min to compounds in 10 mM phosphate buffer containing 5% DMSO prior to addition of 2× Muller-Hinton medium. Bacterial growth was monitored for 12 hours and data were analyzed as described. Determination of MICs was performed by Micromyx, LLC (Kalamazoo, Michigan) according to CLSI standards.

[2] = test system: Staphylococcus aureus ATCC 29213; test: as above; type: cell-based; details: Table S3; concentration at which 100% killing occurred, no bacterial regrowth; No = not active
Method: as §1

[3] = Surface Plasmon Resonance binding to immobilized 3-Lipid II; details: SPR; for Binding on Lipid II?: Table S3, initial determination at 10 µM
Method: Surface Plasmon Resonance binding experiments were carried out on a BIAcore T100 system (BIAcore Inc., Piscataway, NY) at 25°C. The assay buffer was 10 mM HEPES, 150 mM NaCl, 0.05% surfactant P20, pH 7.4 (±3 mM EDTA) supplemented with 10% DMSO. […] For initial determination of binding, defensin mimetics were introduced into the flow-cells (30 µl/min) in the running buffer at 10 µM. Resonance signals were corrected for nonspecific binding by subtracting the background of the control flow-cell. After each analysis, the sensor chip surfaces were regenerated with 50 mM NaOH for 30 s at a flow rate 100 µl/min, and equilibrated with the buffer prior to next injection. For binding kinetics studies, binding isotherms were analyzed with manufacturer-supplied software for BIAcore T100.

Row | Molecule | cytotoxic for Caco II (C50% survival) (Caco-2) | active against E.coli (IC100%) [1] | active against S.aureus (IC100%) [2] | Binding on Lipid II? [3] | IC50 (Caco-2) [µM] | cytotoxic for Caco II (C50% survival) (Caco-2; Table S3, No = not cytotoxic) | IC50 (Caco-2; Table S3, No = not cytotoxic, read-out: cytotoxic for Caco II (C50% survival)) [µM] | binding to Lipid II compared to wild-type HNP-1 ([3]; 10 µM peptide, 40 RUs 3-Lipid II)
1 | Cc1cc2ccccc2n1C=CC1=[N+](C)c2ccccc2C1(C)C [4431/1, 1,3,3-trimethyl-2-(2-(2-methyl-1H-indol-1-yl)vinyl)-3H-1λ5-indole] | No | No | 250 µM | No |  |  |  | 
2 | CN(C)c1ccc(C(c2ccc(N(C)C)cc2)C(O)c2ccccc2)cc1 (stereo not drawn) [35487/2, 2,2-bis(4-(dimethylamino)phenyl)-1-phenylethanol] | No | No | No | No |  |  |  | 
3 | CN(C)c1ccc(C2C=C(c3ccccc3)Oc3ccccc32)cc1 (stereo not drawn) [55870/1, N,N-dimethyl-4-(2-phenyl-4H-chromen-4-yl)aniline] |  | No | 250 µM | Yes | 25.9 |  |  | 
4 | CCN1C(=CC(C)=Cc2sc3ccccc3[n+]2CC)Sc2ccccc21 [96932/4, 3-ethyl-2-(3-(3-ethyl-1,3-benzothiazol-2(3H)-ylidene)-2-methyl-1-propenyl)-1,3λ5-benzothiazole] |  | 15.625 µM | 15,6 µM | No | 19 |  |  | 
5 | OC(c1cccc2ccccc12)c1c2ccccc2cc2ccccc12 (stereo not drawn) [179415/1, 9-anthryl(1-naphthyl)methanol] |  | No | 3,9 µM | Yes |  | No |  | 
6 | CCN1C(=CC(C)=Cc2sc3ccc4ccccc4c3[n+]2CC)Sc2ccc3ccccc3c21 [290437/2, 1-ethyl-2-(3-(1-ethylnaphtho[1,2-d][1,3]thiazol-2(1H)-ylidene)-2-methyl-1-propenyl)-1λ5-naphtho[1,2-d][1,3]thiazole] |  |  |  | No | 2.2 |  |  | 
7 | Cc1cc(C2c3ccccc3-c3ccccc32)cc(C)c1O [610995/1, 4-(9H-fluoren-9-yl)-2,6-dimethylphenol] |  | No | 125 µM | Yes | 9.2 |  |  | 
8 | OCC(CO)C1c2cccc3ccc4cccc1c4c23 [625586/1, 2-(4H-cyclopenta[def]phenanthren-4-yl)-1,3-propanediol] |  | No | No | No | 83.8 |  |  | 
9 | COc1ccc(C=C[c+]2cc(-c3ccccc3)cc(-c3ccccc3)o2)cc1 [BAS00138032, 2-[2-(4-Methoxy-phenyl)-vinyl]-4,6-diphenyl-pyranylium] | No | No | No | No |  |  |  | 
10 | CC(C)(C)c1csc(N2N=C(c3ccccc3)C(=NNc3ccccc3)C2=O)n1 [BAS00691248, 2-(4-tert-Butyl-thiazol-2-yl)-5-phenyl-4-(phenyl-hydrazono)-2,4-dihydro-pyrazol-3-one] | No | No | No | No |  |  |  | 
11 | CCN(CC)CCCN1CN(CCCN(CC)CC)CN(CCCN(CC)CC)C1 [Compound 000A-0859, (3-{3,5-bis[3-(diethylamino)propyl]-1,3,5-triazinan-1-yl}propyl)diethylamine] |  | 500 µM | 500 µM | Yes | 419 |  |  | 
12 | OCCSc1c(F)c(SCCO)c(SCCO)c(F)c1SCCO [Compound 0438-0367, 2-({2,5-difluoro-3,4,6-tris[(2-hydroxyethyl)sulfanyl]phenyl}sulfanyl)ethan-1-ol] | No | No | No | No |  |  |  | 
13 | c1ccc(-c2nc(N(c3ccccc3)c3ccccc3)s[n+]2-c2ccccc2)cc1 [Compound 1492-0330, 5-(diphenylamino)-2,3-diphenyl-1,2$l^5,4-thiadiazol-2-ylium] |  |  |  | Yes |  |  |  | 
14 | CN1/C(=C/C=C2/SC(=S)N(c3ccccc3)C2=O)C(C)(C)c2ccccc21 [Compound 2101-0102, (5E)-3-phenyl-2-sulfanylidene-5-{2-[(2E)-1,3,3-trimethyl-2,3-dihydro-1H-indol-2-ylidene]ethylidene}-1,3-thiazolidin-4-one] | No |  | No |  |  |  |  | 
15 | Cc1cc2c(cc1C)CSC(c1ccc(O)cc1)SC2 [Compound 2729-1114, 4-(7,8-dimethyl-3,5-dihydro-1H-2,4-benzodithiepin-3-yl)phenol] |  | No | No | No |  |  | 119 | 
16 | CN(C)c1ccc(C=C2C=C(c3ccccc3)OC(c3ccccc3)=C2)cc1 [Compound 3377-0105, 4-[(2,6-diphenyl-4H-pyran-4-ylidene)methyl]-N,N-dimethylaniline] |  | No | 500 µM | No | 100 |  |  | 
17 | CCC[N+](CC#CCO)(CC#Cc1ccccc1)CCC [Compound 4636-0141, (4-hydroxybut-2-yn-1-yl)(3-phenylprop-2-yn-1-yl)dipropylazanium] | No | No | No | No |  |  |  | 
18 | CCN1C(=O)C(c2ccc(O)cc2)(c2ccc(O)cc2)c2ccccc21 [Compound 4896-3423, 1-ethyl-3,3-bis(4-hydroxyphenyl)-2,3-dihydro-1H-indol-2-one] |  |  | No |  | 72.1 |  |  | 
19 | Fc1ccccc1CN1CCC(N2CCN(c3ccccc3)CC2)CC1 [Compound 5607-0206, 1-{1-[(2-fluorophenyl)methyl]piperidin-4-yl}-4-phenylpiperazine] |  | No | No | No |  | No |  | 
20 | O=Cc1ccc2c(c1)C1c3ccccc3C2c2ccccc21 [Compound 5100004, pentacyclo[6.6.6.0^{2,7}.0^{9,14}.0^{15,20}]icosa-2,4,6,9,11,13,15,17,19-nonaene-4-carbaldehyde] | No | No | No | No |  |  |  | 
21 | OCc1ccc2c(c1)C1c3ccccc3C2c2ccccc21 [Compound 5100015, pentacyclo[6.6.6.0~2,7~.0~9,14~.0~15,20~]icosa-2,4,6,9,11,13,15,17,19-nonaen-4-ylmethanol] |  | No | 500 µM | No | 68 |  |  | 
22 | CC[n+]1c(/C=C/C=C2C=C(/C=C/N(C(C)=O)c3ccccc3)CC(C)(C)C/2)sc2ccccc21.[I-] [Compound 5119716, 2-[(1E)-3-[(1E)-5,5-dimethyl-3-[(E)-2-(N-phenylacetamido)ethenyl]cyclohex-2-en-1-ylidene]prop-1-en-1-yl]-3-ethyl-1,3-benzothiazol-3-ium iodide] |  | No | 125 µM | No | 52.7 |  |  | 
23 | Cc1cc(C2(c3ccc(O)c(C)c3)C(=O)N(Cc3ccccc3)c3ccccc32)ccc1O [Compound 5142587, 1-benzyl-3,3-bis(4-hydroxy-3-methylphenyl)-2,3-dihydro-1H-indol-2-one] |  | No | 15,625 µM | No | 4.4 |  |  | 
24 | Oc1ccc(O)c2c1C1c3ccccc3C2c2ccccc21 [Compound 5190620, pentacyclo[6.6.6.0^{2,7}.0^{9,14}.0^{15,20}]icosa-2(7),3,5,9,11,13,15,17,19-nonaene-3,6-diol] |  | No | 62,5 µM | No | 3.7 |  |  | 
25 | OCCSc1ccc(Cc2ccc(SCCO)cc2)cc1 [Compound 5210734, 2,2'-[methylenebis(4,1-phenylenethio)]diethanol] | No | No | No | No |  |  |  | 
26 | OCCSc1ccc(-c2ccc(SCCO)cc2)cc1 [Compound 5230234, 2,2'-[4,4'-biphenyldiylbis(thio)]diethanol] |  | No | No | No |  | No |  | 
27 | HNP-1 R24A: single alanine mutant of HNP-1, Arg24 replaced by alanine |  |  |  |  |  |  |  | maintained significant binding
